Test [1] has as its system KRas-mediated Phosphorylation of ERK in H727 cells. Briefly: Cisbio HTRF pERK assay, H727 cells. Type of test: cell-based. Particulars: 3 hrs compound, read-out: Inhibition (HTRF IC50 nM) of KRas-mediated Phosphorylation of ERK, H727.
For test [2], the system named is KRas-mediated Phosphorylation of ERK in A549 cells. Briefly: Cisbio HTRF pERK assay, A549 cells. Type of test: cell-based. The conditions noted are these: A549 cells, 3 hrs compound; read-out: Inhibition (HTRF IC50 nM) of KRas-mediated Phosphorylation of ERK, A549.
The next test has as its target T1, KRas^G12C (Homo sapiens, UniProt P01116, G12C).
T1 construct: Biotinylated KRas (corresponding to amino acids 1-169, produced at Accelegan Inc.); biotin (biotinylated); purchased Accelegan Inc
The experiment in a line: KRas TR-FRET tracer displacement binding assay, G12C. Particulars: 60-minute incubation. As for the experimental part: (§1) KRas^WT, KRas^G12A, KRas^G12C, KRas^G12D, KRas^G12R, KRas^G12S, KRas^G12V, KRas^G13D, or KRas^Q61H was used in the assay.
(§2) The ability of a compound to bind to KRas was measured using a TR-FRET displacement assay. Biotinylated KRas (corresponding to amino acids 1-169, produced at Accelegan Inc.) was incubated with custom made Cy5 labelled tracer, terbium streptavidin (Cisbio Inc.) and compound (1% DMSO final) in buffer (50 mM HEPES, pH 7.5, 5 mM MgCl2, 0.005% Tween-20 and 1 mM DTT). After a 60-minute incubation at room temperature, the reaction was measured using a BMG LABTECH CLARIO star Plus via TR-FRET.
(In TR-FRET formats the signal depends on donor and acceptor labels being close together.)

A further test has as its target T2, KRas^WT (Homo sapiens, UniProt P01116).
T2 construct: Biotinylated KRas (corresponding to amino acids 1-169, produced at Accelegan Inc.); biotin (biotinylated); purchased Accelegan Inc
Briefly: KRas TR-FRET tracer displacement binding assay, WT. Particulars: 60-minute incubation. The protocol: as §1, §2

Test [3] concerns KRas-mediated Phosphorylation of ERK in H358 cells. Briefly: Cisbio HTRF pERK assay, H358 cells. Type of test: cell-based. Particulars: H358 cells, 3 hrs compound; read-out: Inhibition (HTRF IC50 nM) of KRas-mediated Phosphorylation of ERK, H358.
A further test addresses T3, KRas^G12S (Homo sapiens, UniProt P01116, G12S).
T3 construct: Biotinylated KRas (corresponding to amino acids 1-169, produced at Accelegan Inc.); biotin (biotinylated); purchased Accelegan Inc
Briefly: KRas TR-FRET tracer displacement binding assay, G12S. The conditions noted are these: 60-minute incubation. As for the experimental part:
as §1, §2

The test system of test [4] is KRas-mediated Phosphorylation of ERK in AsPC-1 cells. Briefly: Cisbio HTRF pERK assay, AsPC-1 cells. Type of test: cell-based. Particulars: 3 hrs compound, read-out: Inhibition (HTRF IC50 nM) of KRas-mediated Phosphorylation of ERK, AsPC-1.
Another test concerns the target T4, KRas^G12D (Homo sapiens, UniProt P01116, G12D).
T4 construct: Biotinylated KRas (corresponding to amino acids 1-169, produced at Accelegan Inc.); biotin (biotinylated); purchased Accelegan Inc
The experiment in a line: KRas TR-FRET tracer displacement binding assay, G12D. The conditions noted are these: 60-minute incubation. The protocol: as §1, §2

For the next test, the target named is T5, KRas^G12V (Homo sapiens, UniProt P01116, G12V).
T5 construct: Biotinylated KRas (corresponding to amino acids 1-169, produced at Accelegan Inc.); biotin (biotinylated); purchased Accelegan Inc
T5 sequence (P01116 1-169 isoform P01116-2 G12V): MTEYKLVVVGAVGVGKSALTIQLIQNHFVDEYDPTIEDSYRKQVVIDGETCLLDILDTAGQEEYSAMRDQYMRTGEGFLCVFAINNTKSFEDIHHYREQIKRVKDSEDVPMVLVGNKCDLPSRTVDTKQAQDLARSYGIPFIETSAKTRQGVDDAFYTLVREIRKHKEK
The experiment in a line: KRas TR-FRET tracer displacement binding assay, G12V. Particulars: 60-minute incubation. As for the experimental part:
as §1, §2

T4 sequence (P01116 1-169 isoform P01116-2 G12D): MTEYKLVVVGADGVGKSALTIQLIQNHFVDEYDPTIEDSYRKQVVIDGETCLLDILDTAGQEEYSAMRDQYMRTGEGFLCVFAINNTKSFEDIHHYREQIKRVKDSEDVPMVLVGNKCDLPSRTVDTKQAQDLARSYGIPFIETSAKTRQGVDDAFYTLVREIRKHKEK
T3 sequence (P01116 1-169 isoform P01116-2 G12S): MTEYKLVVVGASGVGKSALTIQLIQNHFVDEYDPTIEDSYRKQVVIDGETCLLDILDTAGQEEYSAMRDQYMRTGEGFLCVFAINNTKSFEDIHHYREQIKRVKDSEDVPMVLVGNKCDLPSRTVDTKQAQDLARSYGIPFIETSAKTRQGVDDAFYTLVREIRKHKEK
T1 sequence (P01116 1-169 isoform P01116-2 G12C): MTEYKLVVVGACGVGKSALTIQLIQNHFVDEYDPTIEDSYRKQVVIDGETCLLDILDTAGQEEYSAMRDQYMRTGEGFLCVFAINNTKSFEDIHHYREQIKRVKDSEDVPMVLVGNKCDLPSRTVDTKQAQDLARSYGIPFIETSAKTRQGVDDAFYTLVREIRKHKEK
T2 sequence (P01116 1-169 isoform P01116-2): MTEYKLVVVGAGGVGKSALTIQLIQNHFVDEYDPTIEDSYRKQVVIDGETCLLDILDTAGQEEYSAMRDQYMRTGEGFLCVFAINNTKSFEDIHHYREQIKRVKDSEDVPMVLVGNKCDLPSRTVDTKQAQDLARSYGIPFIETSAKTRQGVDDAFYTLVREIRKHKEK

Take `N#Cc1c(N)sc2c(F)ccc(-c3c(Cl)cc4c(N5CCCOC6CC65)nc(OC[C@@]56CCCN5C[C@H](F)C6)nc4c3F)c12` (single isomer, unassigned) [Example 212]: the IC50 (commonly the concentration that inhibits the measured activity by half) worked out at 357 nM in test [1]; 76 nM in [2]; 6 nM on KRas^G12C; 6 nM on KRas^WT; 22 nM in [3]; 6 nM on KRas^G12S. The IC50 in test [4] turned out to be 230 nM; on KRas^G12D it was 14 nM; on KRas^G12V, 11 nM.

Regarding `CC(Oc1nc(N(C)C)c2cc(F)c(-c3ccc(F)c4sc(N)c(C#N)c34)c(F)c2n1)C12CCCN1CCC2` (single isomer, unassigned; isomer 1) [Example 177, 2-amino-4-(4-(dimethylamino)-6,8-difluoro-2-(1-(tetrahydro-1H-pyrrolizin-7a(5H)-yl)ethoxy)quinazolin-7-yl)-7-fluorobenzo[b]thiophene-3-carbonitrile (isomer 1)], the IC50 was 36 nM at KRas^G12C; 40 nM at KRas^WT; 42 nM on KRas^G12S; 107 nM at KRas^G12D; 18 nM at KRas^G12V.

For the compound `N#Cc1c(N)sc2c(F)ccc(-c3c(Cl)cc4c(N5CCCOC6CC65)nc(OC[C@@]56CCCN5C[C@H](F)C6)nc4c3F)c12` (single isomer, unassigned) [Example 213], the IC50 was found to be 767 nM in test [1]; 398 nM in [2]; 8 nM at KRas^G12C; 11 nM on KRas^WT; 160 nM in test [3]; 5 nM at KRas^G12S. The IC50 in test [4] is 761 nM; at KRas^G12D it was 9 nM; at KRas^G12V, 4 nM.

Consider `CC(Oc1nc(N(C)C)c2cc(F)c(-c3ccc(F)c4sc(N)c(C#N)c34)c(F)c2n1)C12CCCN1CCC2` (single isomer, unassigned; isomer 2) [Example 178, 2-amino-4-(4-(dimethylamino)-6,8-difluoro-2-(1-(tetrahydro-1H-pyrrolizin-7a(5H)-yl)ethoxy)quinazolin-7-yl)-7-fluorobenzo[b]thiophene-3-carbonitrile (isomer 2)], for which the IC50 stood at 20 nM at KRas^G12C; 17 nM on KRas^WT; 28 nM on KRas^G12S; 92 nM on KRas^G12D; 10 nM on KRas^G12V.
